# Laboratory results taken from publication PMC4150738 (Analytica chimica acta, 2014).
# Read-outs that look alike come from different tables or passages of the source.
# Columns and labels:
# [1] = Short-term stability in fortified plasma; format: physicochemical, human
# [2] = for change of plasma concentration without the deconjugation step (hydrolysis): rat plasma after 0.5 mg kg-1 MDPV ip or sc, with vs without hydrolysis; for form present in rat plasma: rat plasma after MDPV, concluded from hydrolysis comparison; for plasma concentration, Without hydrolysis / plasma concentration, Hydrolysis / plasma concentration range after intraperitoneal dosing / plasma concentration range after the subcutaneous dose: rat plasma; for plasma concentration, Without hydrolysis / plasma concentration, Hydrolysis: LOQ 0.25 μg L^−1; for plasma concentration, Hydrolysis: with hydrolysis; for plasma concentration range after intraperitoneal dosing: 0.5 mg kg^−1 MDPV intraperitoneal; for plasma concentration range after intraperitoneal dosing / plasma concentration range after the subcutaneous dose: samples 10-480 min after dosing; for plasma concentration range after the subcutaneous dose: 0.5 mg kg^−1 MDPV subcutaneous
# [3] = High QC 750 μg L^−1, n=5, vs freshly fortified
# [4] = Low QC 0.75 μg L^−1, n=5, vs freshly fortified
# [5] = Medium QC 25 μg L^−1, n=5, vs freshly fortified
# [6] = 0.5 mg kg-1 MDPV ip, 0 min (before dosing)
# [7] = 0.5 mg kg-1 MDPV sc, 0 min (before dosing)
Compound,"Stability (% difference) 3 freeze-thaw cycles [1, 3]","Stability (% difference) 72h at 4°C [1, 3]","Stability (% difference) 3 freeze-thaw cycles [1, 4]","Stability (% difference) 72h at 4°C [1, 4]","Stability (% difference) 3 freeze-thaw cycles [1, 5]","Stability (% difference) 72h at 4°C [1, 5]",change of plasma concentration without the deconjugation step (hydrolysis) [2],form present in rat plasma [2],"plasma concentration, Without hydrolysis [2, 6]","plasma concentration, Hydrolysis ([2]; 0.5 mg kg-1 MDPV ip, 10 min)","plasma concentration, Without hydrolysis ([2]; 0.5 mg kg-1 MDPV ip, 10 min)","plasma concentration, Hydrolysis ([2]; 0.5 mg kg-1 MDPV ip, 20 min)","plasma concentration, Without hydrolysis ([2]; 0.5 mg kg-1 MDPV ip, 20 min)","plasma concentration, Hydrolysis ([2]; 0.5 mg kg-1 MDPV ip, 30 min)","plasma concentration, Without hydrolysis ([2]; 0.5 mg kg-1 MDPV ip, 30 min)","plasma concentration, Hydrolysis ([2]; 0.5 mg kg-1 MDPV ip, 60 min)","plasma concentration, Without hydrolysis ([2]; 0.5 mg kg-1 MDPV ip, 60 min)","plasma concentration, Hydrolysis ([2]; 0.5 mg kg-1 MDPV ip, 120 min)","plasma concentration, Without hydrolysis ([2]; 0.5 mg kg-1 MDPV ip, 120 min)","plasma concentration, Hydrolysis ([2]; 0.5 mg kg-1 MDPV ip, 240 min)",further results
"CCCC(C(=O)c1ccc(O)c(O)c1)N1CCCC1 (centres unmarked) [3,4-catechol-PV, 3,4-dihydroxypyrovalerone]",−3.6 % difference,−3 % difference,−3.2 % difference,−7.3 % difference,−2.6 % difference,6.5 % difference,greatly decreased,primarily present as the conjugated forms,<LOQ,4.3 ng/mL,<LOQ,5.1 ng/mL,<LOQ,4.9 ng/mL,<LOQ,3.7 ng/mL,<LOQ,9.6 ng/mL,<LOQ,11.8 ng/mL,"plasma concentration, Without hydrolysis ([2]; 0.5 mg kg-1 MDPV ip, 240 min): <LOQ; plasma concentration, Hydrolysis ([2]; 0.5 mg kg-1 MDPV ip, 480 min): 5.3 ng/mL; plasma concentration, Without hydrolysis ([2]; 0.5 mg kg-1 MDPV ip, 480 min): <LOQ; plasma concentration, Without hydrolysis [2, 7]: <LOQ; plasma concentration, Hydrolysis ([2]; 0.5 mg kg-1 MDPV sc, 10 min): 1.3 ng/mL; plasma concentration, Without hydrolysis ([2]; 0.5 mg kg-1 MDPV sc, 10 min): <LOQ; plasma concentration, Hydrolysis ([2]; 0.5 mg kg-1 MDPV sc, 20 min): 2.7 ng/mL; plasma concentration, Without hydrolysis ([2]; 0.5 mg kg-1 MDPV sc, 20 min): <LOQ; plasma concentration, Hydrolysis ([2]; 0.5 mg kg-1 MDPV sc, 30 min): 3.1 ng/mL; plasma concentration, Without hydrolysis ([2]; 0.5 mg kg-1 MDPV sc, 30 min): <LOQ; plasma concentration, Hydrolysis ([2]; 0.5 mg kg-1 MDPV sc, 60 min): 3.8 ng/mL; plasma concentration, Without hydrolysis ([2]; 0.5 mg kg-1 MDPV sc, 60 min): <LOQ; plasma concentration, Hydrolysis ([2]; 0.5 mg kg-1 MDPV sc, 120 min): 9.4 ng/mL; plasma concentration, Without hydrolysis ([2]; 0.5 mg kg-1 MDPV sc, 120 min): <LOQ; plasma concentration, Hydrolysis ([2]; 0.5 mg kg-1 MDPV sc, 240 min): 9.8 ng/mL; plasma concentration, Without hydrolysis ([2]; 0.5 mg kg-1 MDPV sc, 240 min): <LOQ; plasma concentration, Hydrolysis ([2]; 0.5 mg kg-1 MDPV sc, 480 min): 3.6 ng/mL; plasma concentration, Without hydrolysis ([2]; 0.5 mg kg-1 MDPV sc, 480 min): <LOQ; plasma concentration range after intraperitoneal dosing [2]: 3.7 to 11.8 ng/mL; plasma concentration range after the subcutaneous dose [2]: 1.3 to 9.8 ng/mL"
"CCCC(C(=O)c1ccc(O)c(OC)c1)N1CCCC1 (centres unmarked) [4-OH-3-MeO-PV, 4-hydroxy-3-methoxypyrovalerone]",−0.5 % difference,−1.5 % difference,3.5 % difference,3.9 % difference,−0.5 % difference,6 % difference,greatly decreased,primarily present as the conjugated forms,<LOQ,9.3 ng/mL,0.9 ng/mL,11.8 ng/mL,0.7 ng/mL,12.3 ng/mL,0.7 ng/mL,14.1 ng/mL,<LOQ,68.9 ng/mL,0.5 ng/mL,84.7 ng/mL,"plasma concentration, Without hydrolysis ([2]; 0.5 mg kg-1 MDPV ip, 240 min): 0.5 ng/mL; plasma concentration, Hydrolysis ([2]; 0.5 mg kg-1 MDPV ip, 480 min): 23.6 ng/mL; plasma concentration, Without hydrolysis ([2]; 0.5 mg kg-1 MDPV ip, 480 min): <LOQ; plasma concentration, Without hydrolysis [2, 7]: <LOQ; plasma concentration, Hydrolysis ([2]; 0.5 mg kg-1 MDPV sc, 10 min): 3.2 ng/mL; plasma concentration, Without hydrolysis ([2]; 0.5 mg kg-1 MDPV sc, 10 min): 1.1 ng/mL; plasma concentration, Hydrolysis ([2]; 0.5 mg kg-1 MDPV sc, 20 min): 6.1 ng/mL; plasma concentration, Without hydrolysis ([2]; 0.5 mg kg-1 MDPV sc, 20 min): 1.2 ng/mL; plasma concentration, Hydrolysis ([2]; 0.5 mg kg-1 MDPV sc, 30 min): 6.7 ng/mL; plasma concentration, Without hydrolysis ([2]; 0.5 mg kg-1 MDPV sc, 30 min): 1.1 ng/mL; plasma concentration, Hydrolysis ([2]; 0.5 mg kg-1 MDPV sc, 60 min): 11 ng/mL; plasma concentration, Without hydrolysis ([2]; 0.5 mg kg-1 MDPV sc, 60 min): 0.9 ng/mL; plasma concentration, Hydrolysis ([2]; 0.5 mg kg-1 MDPV sc, 120 min): 44.7 ng/mL; plasma concentration, Without hydrolysis ([2]; 0.5 mg kg-1 MDPV sc, 120 min): 0.7 ng/mL; plasma concentration, Hydrolysis ([2]; 0.5 mg kg-1 MDPV sc, 240 min): 54.4 ng/mL; plasma concentration, Without hydrolysis ([2]; 0.5 mg kg-1 MDPV sc, 240 min): 0.4 ng/mL; plasma concentration, Hydrolysis ([2]; 0.5 mg kg-1 MDPV sc, 480 min): 11 ng/mL; plasma concentration, Without hydrolysis ([2]; 0.5 mg kg-1 MDPV sc, 480 min): <LOQ; plasma concentration range after intraperitoneal dosing [2]: 9.3 to 84.7 ng/mL; plasma concentration range after the subcutaneous dose [2]: 3.2 to 54.4 ng/mL"
